Measurements published in patent publication US6756362B2, “Methods and compositions based on inhibition of cell invasion and fibrosis by anionic polymers” (priority 1991, dated 2004).

Key:
PC12 cells = experiment: PC12 neurite outgrowth assay; assay type: cell-based; settings: NGF-primed PC12 cells; scored 2 days later
Experimental: (§1) Cell lines. Murine 3T3 fibroblast (NIH), rat C6 glioma (Paganetti et al., 1988, J. Cell Biol. 107:2281) and MCG-28 young immortalized mouse astrocyte (a murine neonatal astrocyte line immortalized with SV-40) were grown in medium composed of Dulbecco's modified Eagle medium (DMEM), 10% fetal calf serum (Gibco Laboratories), and penicillin G/streptomycin (100 units/ml, 100 μg/ml respectively, Gibco Laboratories). For the stripe assay, confluent plates were disaggregated with 0.05% trypsin, 0.53 mM EDTA (Gibco Laboratories) and seeded at 200,000 cells/ml (3 ml/plate). For the cell adhesion assays, confluent cultures were disaggregated with 0.03% EDTA and plated in a 96-well microtiter plate at 20,000-100,000 cells per well. PC12 cells, a pheochromocytoma cell line (Green L. A. & Tischler A. S., 1976, Proc. Natl. Acad. Sci. U.S.A. 73:2424), were grown in medium containing Roswell Park Memorial Institute (RPMI) medium 1640 (Gibco Laboratories), 10% horse serum, 5% fetal calf serum (FCS), and penicillin G/streptomycin (100 units/ml, 100 μg/ml respectively, Gibco Laboratories). The cells were disaggregated with 0.03% EDTA and plated in a 96-well microtiter plate at 3,000 cells per well.
PC12 cells were primed with 20 ng/ml NGF for 8 days, collected with 0.03% EDTA in PBS and plated in precoated 96-well microtiter plates at 3,000 cells/well. The microtiter plates were precoated with poly-L-lysine and blocked with adhesion medium (1% BSA in RPMI) for 20 min prior to addition of cells. The cells were grown in adhesion medium supplemented with 20 ng/ml NGF. The cells were allowed to attach for 2 hr prior to the addition of the test compounds (Akeson and Warren, 1986, Exp. Cell Res. 162:347-362).
PC-12 cells primed with NGF were plated in 96-well plates. Test solutions were added to the wells and the cells were scored 2 days later as (+) if neurites of at least two cell bodies diameter in length were present on the majority of the cells, and (−) if no or only short processes were present. […] The compounds tested included GAGs (heparin, dermatan sulfate, chondroitin sulfate A, keratan sulfate and hyaluronic acid), sulfated carbohydrate polymers (dextran sulfate and pentosan polysulfate), and another polyanionic polymer (e.g., alginic acid).

Sulfur content = assay type: physicochemical; settings: by weight
[1] = test system: epidural fibrosis at laminectomy site, Lewis inbred rats; experiment: Epidural fibrosis after lumbar laminectomy in rats, gross evaluation; assay type: in vivo, rat; design: TOTAL SCORE / TOTAL SCORE 2 WEEKS: scale not given here; settings: for inhibition of scar formation (in words): 20 mg/ml, versus buffer control; for TOTAL SCORE: Table 5, agent 20 mg/ml
Experimental: Epidural fibrosis was investigated after lumbar laminectomy in rats. In this model, a laminectomy was performed at the lumbar 3 and 5 vertebrae and then the test agent was applied to the laminectomy site. Subsequently, the laminectomy sites were examined for fibrosis by gross dissection or by histological analysis.
Laminectomies (described below) were performed at lumbar vertebrae L3 and L5 to provide auto-controls within each animal. Segments of GELFOAM® (Upjohn) soaked with experimental or control solutions were inserted into the laminectomy site. The soared GELFOAM® fragments were prepared and coded 24 hours beforehand. The GELFOAM® segments were soaked in solutions of dextran sulfate in calcium/magnesium-free phosphate buffered saline (CMF-PBS), dextran in CMF-PBS, or CMF-PBS alone. In some laminectomy sites, the GELFOAM® fragments were omitted, in order to serve as sham operations. Subsequently, the evaluation by gross dissection was done without knowledge of which solutions had been placed in which laminectomy site. Thus, the experiments were double-blind.
Lewis inbred rats were anesthetized with 4% chloral hydrate (34 mg/100 g body weight). The dorsal skin was incised and the paraspinal muscles were separated from the spinous processes of lumbar vertebrae L2 through L6. The spinous processes of L3 and L5 were removed with a rongeurs; then the vertebral lamina was removed with a micro-rongeurs creating a rectangular laminectomy defect 4×2 mm in size. After bleeding was stopped, a GELFOAM® segment was placed into the laminectomy site according to a randomized protocol. The overlying paraspinal muscles were closed over the site by suturing the superficial fascia together with resorbable 6-0 PDS II (Ethicon). The skin incision was closed with wound clips.
The animals were kept for two weeks prior to gross evaluation. At that time, the rats were anesthetized with 4% chloral hydrate and the wound was reopened by incising, the skin and separating the paraspinal muscles. The quality and quantity of scar tissue above the laminectomy site, the appearance of the GELFOAM® and the extent of new bone growth was evaluated by visual and tactile observation during sharp dissection. After the gross evaluation was complete, the rats were euthanized by anesthesia overdose.
All gross evaluations were made prior to breaking the treatment code, but the observations have been tabulated and presented below according to treatment group.

3T3 cells = experiment: Colorimetric cell adhesion assay, 3T3; assay type: cell-based, mouse; settings: 3T3 cells on PLL; 4 hr incubation; FIG. 7
Experimental: as §1
(§2) Microtiter plates were precoated with poly-L-lysine and blocked with 1% BSA in DMEM for 20 min prior to addition of cells. The cells were plated on the precoated 96-well plates and test compounds were added to the culture medium. Following 4-24 hr incubation at 36° C., 5% C02, in a humidified incubator, the tetrazolium salt MTT (3-(4,5-dimethylthazol-2-yl)-2,5-diphenyl tetrazolium bromide) was added. The cultures were incubated for 2 hr to allow mitochondrial succinate dehydrogenase, found in viable cells, to […] the MTT to its formazan blue reaction product. The media was aspirated and the wells were rinsed to remove all detached cells. The formazan blue reaction product in attached cells was solubilized with 0.08 N HCl in isopropanol, and the plates were read in a microtiter plate reader (Dynatech MR4000) at 570 nm with a 630 nm reference filter. The resulting optical density readings are directly related to the number of viable cells in the well (Mosmann, T., 1983, J. Immunol. Methods 65:55-63). The samples were run in 3-6 replicates per point and the SD was less than 5%.
(§3) The adhesion of fibroblasts to PLL-coated microtiter plates in the presence of test compounds in the culture medium was evaluated using an MTT assay as described in Section 8.1.5., supra, and the number of attached cells was expressed as percent of control. The effect of 4 hr incubation in the presence of heparin, pentosan polysulfate, dextran sulfate, and dextran on adhesion of rat meningeal fibroplasts (RMF) and 3T3 cells to PLL is shown in FIG. 7.

[2] = test system: rat meningeal fibroblasts (RMF); experiment: Colorimetric cell adhesion assay, RMF; assay type: cell-based; settings: RMF on PLL; 4 hr incubation; FIG. 7
Experimental: Primary Cell Cultures. Primary cultures of rat meningeal fibroblasts (RMF) were obtained from P-3 rat pups. The tissue was removed from the animals and transferred to Leibovitz's L-15 with L-glutamine medium. The tissue was then cut into small pieces with a scalpel blade, enzymatically dissociated with 0.25% trypsin in Ca^2+/Mg^2+ free Hank's balanced salt solution (CMF-HBSS, Gibco Laboratories) for 20 minutes at 37° C., and mechanically triturated. The cells were rinsed with DMEM plus 10% FCS, concentrated by centrifugation and subsequently diluted in DMEM with 10% FCS for plating at 5.0×10^6 cells per 75 cm^2 flask. Adult rat sciatic nerve fibroblasts (RSF) were obtained by explantation of 1 mm sections of adult rat sciatic nerve.
as §2, §3

| Substance | Sulfur Content (Sulfur content) | IC100, minimum concentration causing 100% inhibition of neurite outgrowth (PC12 cells) [g/mL] | inhibition of scar formation (in words) [1] | TOTAL SCORE [1] | number of attached cells compared to untreated controls (3T3 cells) | number of attached cells compared to untreated controls [2] |
| --- | --- | --- | --- | --- | --- | --- |
| alginate | 0% | 3.1e-06 | marginal improvement | 7.3 ± 1.9 | – | – |
| keratan sulfate | 6.4% | – | – | – | – | – |
| chondroitin sulfate A | 5.6% | 0.0005 | – | – | – | – |

Continued, in another order:

| Sulfur Content (Sulfur content) | Substance | IC100, minimum concentration causing 100% inhibition of neurite outgrowth (PC12 cells) [g/mL] | inhibition of scar formation (in words) [1] | TOTAL SCORE [1] | number of attached cells compared to untreated controls (3T3 cells) | number of attached cells compared to untreated controls [2] |
| --- | --- | --- | --- | --- | --- | --- |
| 6.0% | dermatan sulfate [Dermatan sulfate 90%] | 1.5e-05 | – | – | – | – |
| 0.6-0.8% | hyaluronic acid [reference compound] | 0.0002 | no ability to inhibit scar formation | 9.3 ± 0.5 | – | – |
| 16.5% | pentosan polysulfate [reference compound] | 3.9e-07 | partial inhibition | 5.0 ± 1.0 | decreased | decreased |
